Laboratory results: patent publication US12065443B2, “Compounds and pharmaceutical compositions thereof for the treatment of diseases” (priority 2017, dated 2024)
pIC50: −log10 of the molar value.

Key:
Assay in all cases: biochemical
[1] = molecular target: T1, SIK1 (Homo sapiens, UniProt P57059); details: 33P radioactive SIK kinase assay, AMARA peptide, 10 μM ATP; read-out: SIK1 IC50
T1 construct: purchased Carna Biosciences 02-131
Procedure: (§1) The principle of the ^33P radioactive kinase assay consists in measuring the incorporated ^33P into the substrate AMARA peptide when phosphorylated by SIK1, SIK2 or SIK3 using [^33P]-g-ATP, which correlates with kinase activity.
(§2) 1% DMSO and 10 μM staurosporine final concentrations are used as negative and positive controls.
(§3) 11 μL of enzyme-substrate mixture is added on the assay plates. The reactions are started by adding 9 μL ATP mixture, consisting of non-labeled and ^33P-labeled ATP, on the assay plates.
(§4) The reactions are stopped by adding 25 μL phosphoric acid (150 mM) to the reactions.
(§5) After harvesting the kinase reactions, the filter plates are washed 6 times with phosphoric acid (75 mM). […] The top of the plates are sealed with TopSeal-A. Read-out is performed with a TopCount instrument (PerkinElmer Inc.).

[2] = molecular target: T2, SIK2 (Homo sapiens, UniProt Q9H0K1); details: 33P radioactive SIK kinase assay, AMARA peptide, 10 μM ATP
T2 construct: purchased ThermoFisher Scientific PV4792
Procedure: as §1, §2, §3, §4, §5

[3] = molecular target: T3, SIK3 (Homo sapiens, UniProt Q9Y2K2)
T3 construct: purchased SignalChem S12-11G-100
Procedure: as §1, §2, §3, §4, §5

T3 sequence (Q9Y2K2 whole entry): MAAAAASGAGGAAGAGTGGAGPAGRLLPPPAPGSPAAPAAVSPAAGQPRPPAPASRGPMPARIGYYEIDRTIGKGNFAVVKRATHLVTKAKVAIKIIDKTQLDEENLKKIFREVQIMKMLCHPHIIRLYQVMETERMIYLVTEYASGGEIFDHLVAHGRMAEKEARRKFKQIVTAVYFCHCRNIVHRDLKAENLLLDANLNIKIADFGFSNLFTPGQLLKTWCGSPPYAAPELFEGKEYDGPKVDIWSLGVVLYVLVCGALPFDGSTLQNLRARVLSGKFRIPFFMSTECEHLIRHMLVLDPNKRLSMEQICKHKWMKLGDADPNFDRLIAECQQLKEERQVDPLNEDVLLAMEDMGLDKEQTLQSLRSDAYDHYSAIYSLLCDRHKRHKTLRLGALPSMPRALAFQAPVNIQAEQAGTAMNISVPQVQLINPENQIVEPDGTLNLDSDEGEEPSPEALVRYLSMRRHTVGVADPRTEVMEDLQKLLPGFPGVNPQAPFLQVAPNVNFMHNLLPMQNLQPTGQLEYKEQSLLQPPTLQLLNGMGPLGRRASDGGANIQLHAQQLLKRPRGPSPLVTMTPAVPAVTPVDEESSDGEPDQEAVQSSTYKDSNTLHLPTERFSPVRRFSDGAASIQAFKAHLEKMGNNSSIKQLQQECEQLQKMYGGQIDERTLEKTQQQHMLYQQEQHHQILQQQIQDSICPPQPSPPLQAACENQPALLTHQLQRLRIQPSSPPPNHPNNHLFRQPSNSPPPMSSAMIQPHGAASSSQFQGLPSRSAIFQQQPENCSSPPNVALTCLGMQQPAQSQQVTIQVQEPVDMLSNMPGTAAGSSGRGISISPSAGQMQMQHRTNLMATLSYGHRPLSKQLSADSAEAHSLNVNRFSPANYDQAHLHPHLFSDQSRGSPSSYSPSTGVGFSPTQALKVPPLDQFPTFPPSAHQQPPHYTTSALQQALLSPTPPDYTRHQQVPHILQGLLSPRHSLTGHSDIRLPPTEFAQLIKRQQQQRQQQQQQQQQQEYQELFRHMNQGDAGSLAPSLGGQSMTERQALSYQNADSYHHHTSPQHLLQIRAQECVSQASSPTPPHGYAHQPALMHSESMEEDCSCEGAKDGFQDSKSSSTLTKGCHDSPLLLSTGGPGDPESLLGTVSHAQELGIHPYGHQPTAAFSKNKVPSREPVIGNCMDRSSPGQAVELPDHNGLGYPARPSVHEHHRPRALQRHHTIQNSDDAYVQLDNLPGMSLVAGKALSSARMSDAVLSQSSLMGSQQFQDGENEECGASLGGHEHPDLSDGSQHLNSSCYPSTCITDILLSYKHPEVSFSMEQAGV
T2 sequence (Q9H0K1 whole entry): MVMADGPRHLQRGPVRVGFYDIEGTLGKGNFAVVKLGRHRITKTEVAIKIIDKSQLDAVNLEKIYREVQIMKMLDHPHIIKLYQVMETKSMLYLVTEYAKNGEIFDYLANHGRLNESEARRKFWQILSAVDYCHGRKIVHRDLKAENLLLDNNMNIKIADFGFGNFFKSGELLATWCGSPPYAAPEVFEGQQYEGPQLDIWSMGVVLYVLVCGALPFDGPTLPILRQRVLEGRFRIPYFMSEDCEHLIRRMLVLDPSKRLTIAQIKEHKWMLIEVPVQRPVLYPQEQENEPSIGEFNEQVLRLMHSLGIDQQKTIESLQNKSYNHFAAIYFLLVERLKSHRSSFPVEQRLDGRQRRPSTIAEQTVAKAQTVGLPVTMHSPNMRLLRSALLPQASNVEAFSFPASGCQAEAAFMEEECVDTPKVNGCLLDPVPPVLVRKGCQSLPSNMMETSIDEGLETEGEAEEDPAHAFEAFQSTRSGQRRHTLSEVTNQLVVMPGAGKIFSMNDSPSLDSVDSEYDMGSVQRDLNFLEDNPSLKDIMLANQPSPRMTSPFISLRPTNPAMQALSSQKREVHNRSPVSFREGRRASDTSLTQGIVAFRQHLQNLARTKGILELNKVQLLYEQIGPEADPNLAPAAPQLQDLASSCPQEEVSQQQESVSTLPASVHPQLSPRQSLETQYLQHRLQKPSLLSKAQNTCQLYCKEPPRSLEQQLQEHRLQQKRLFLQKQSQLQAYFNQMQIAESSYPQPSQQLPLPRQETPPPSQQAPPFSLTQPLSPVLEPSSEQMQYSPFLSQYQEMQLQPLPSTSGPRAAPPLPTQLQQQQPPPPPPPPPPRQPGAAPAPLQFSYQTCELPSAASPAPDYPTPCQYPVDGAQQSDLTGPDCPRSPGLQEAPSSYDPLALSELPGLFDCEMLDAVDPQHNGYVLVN
T1 sequence (P57059 whole entry): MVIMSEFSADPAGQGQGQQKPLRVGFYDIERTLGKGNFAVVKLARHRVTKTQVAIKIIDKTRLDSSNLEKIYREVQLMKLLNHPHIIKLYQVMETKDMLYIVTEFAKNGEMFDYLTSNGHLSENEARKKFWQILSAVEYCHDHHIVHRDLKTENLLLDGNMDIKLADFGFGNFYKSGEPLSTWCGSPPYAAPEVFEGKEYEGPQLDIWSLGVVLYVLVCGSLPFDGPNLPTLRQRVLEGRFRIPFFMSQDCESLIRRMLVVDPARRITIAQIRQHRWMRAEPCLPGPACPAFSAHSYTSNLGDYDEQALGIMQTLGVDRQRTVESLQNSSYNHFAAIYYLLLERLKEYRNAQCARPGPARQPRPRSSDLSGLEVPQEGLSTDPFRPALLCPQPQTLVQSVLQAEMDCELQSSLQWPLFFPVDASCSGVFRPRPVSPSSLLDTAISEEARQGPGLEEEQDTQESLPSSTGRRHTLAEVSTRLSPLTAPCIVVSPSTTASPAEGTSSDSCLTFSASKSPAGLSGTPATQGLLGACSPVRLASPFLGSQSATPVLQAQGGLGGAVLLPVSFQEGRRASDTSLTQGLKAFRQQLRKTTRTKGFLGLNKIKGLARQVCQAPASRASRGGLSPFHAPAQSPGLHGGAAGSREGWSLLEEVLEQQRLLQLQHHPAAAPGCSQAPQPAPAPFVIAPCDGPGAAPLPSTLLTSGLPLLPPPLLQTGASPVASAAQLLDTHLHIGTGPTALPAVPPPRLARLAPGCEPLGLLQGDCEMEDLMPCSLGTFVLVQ

| Compound | pIC50 [1] | pIC50 [2] | pIC50 [3] |
| --- | --- | --- | --- |
| CCn1cc(-c2ccc3c(c2)ncn3-c2cc(OC)c(C(=O)NCCO)c(OC)c2)cn1 [compound 5, 4-[5-(1-ethylpyrazol-4-yl)benzimidazol-1-yl]-N-(2-hydroxyethyl)-2,6-dimethoxy-benzamide] | 6.30 to 7.00 | 7.00 to 8.00 | 7.00 to 8.00 |
| COc1cc(-n2cnc3cc(-c4cnn(C)c4)ccc32)cc(OC)c1C(=O)Nc1ccnn1C [compound 73, 2,6-dimethoxy-N-(2-methylpyrazol-3-yl)-4-[5-(1-methylpyrazol-4-yl)benzimidazol-1-yl]benzamide] | < 6.30 | 6.30 to 7.00 | 6.30 to 7.00 |
| COc1cc(-n2cnc3cc(-c4cnn(C)c4)ccc32)cc(OC)c1C(=O)NCCC#N [compound 59, N-(2-cyanoethyl)-2,6-dimethoxy-4-[5-(1-methylpyrazol-4-yl)benzimidazol-1-yl]benzamide] | 7.00 to 8.00 | 7.00 to 8.00 | 7.00 to 8.00 |
| COc1cc(-n2cnc3cc(-c4cnn(C)c4)ccc32)cc(OC)c1C(=O)N1CC(OC)C1 [compound 190, [2,6-dimethoxy-4-[5-(1-methylpyrazol-4-yl)benzimidazol-1-yl]phenyl]-(3-methoxyazetidin-1-yl)methanone] | 7.00 to 8.00 | 7.00 to 8.00 | 6.30 to 7.00 |
| COc1cc(-n2cnc3cc(-c4cnn(C)c4)ccc32)cc(OC)c1C(=O)N1CC(c2ccccc2)C1 [compound 180, [2,6-dimethoxy-4-[5-(1-methylpyrazol-4-yl)benzimidazol-1-yl]phenyl]-(3-phenylazrtidin-1-yl)methanone] | 7.00 to 8.00 | 6.30 to 7.00 | 6.30 to 7.00 |
| COc1cc(-c2cnc3cc(-c4cnn(C)c4)ccn23)cc(OC)c1C(=O)NC1CS(=O)(=O)C1 [compound 130, N-(1,1-dioxothietan-3-yl)-2.6-dimethoxy-4-[7-(l-methylpyrazol-4-yl)imidazo[1,2-a]pyridin-3-yl]benzamide] | 7.00 to 8.00 | 8.00 to 11.00 | 7.00 to 8.00 |
| COCCN(C)C(=O)c1c(OC)cc(-c2cnc3cc(-c4cnn(C)c4)ccn23)cc1OC [compound 131, 2,6-dimethoxy-N-(2-methoxyethyl)-N-methyl-4-[7-(1-methylpyrazol-4-yl)imidazo[1,2-a]pyridin-3-yl]benzamide] | < 6.30 | 6.30 to 7.00 | 6.30 to 7.00 |
| COc1cc(-n2cnc3cc(-c4ccnnc4)ccc32)cc(OC)c1C(=O)NCC(F)(F)F [compound 93, 2,6-dimethoxy-4-(5-pyridazin-4-ylbenzimidazol-1-yl)-N-(2,2,2-trifluoroethyl)benzamide] | 6.30 to 7.00 | 7.00 to 8.00 | 7.00 to 8.00 |
| COc1cc(-n2cnc3cc(-c4cnn(C)c4)ccc32)cc(OC)c1C(=O)NC[C@H]1COCCO1 [compound 69, N-[[(2S)-1,4-dioxan-2-yl]methyl]-2,6-dimethoxy-4-[5-(1-methylpyrazol-4-yl)benzimidazol-1-yl]benzamide] | 6.30 to 7.00 | 6.30 to 7.00 | 6.30 to 7.00 |
| CCn1cc(-c2ccc3c(c2)ncn3-c2cc(OC)c(C(=O)N(C)CCOC)c(OC)c2)cn1 [compound 27, 4-[5-(1-ethylpyrazol-4-yl)benzimidazol-1-yl]-2,6-dimethoxy-N-(2-methoxyethyl)-N-methyl-benzamide] | < 6.30 | < 6.30 | < 6.30 |
| COc1ncc(-c2ccc3c(c2)ncn3-c2cc(OC)c(C(=O)NCC(F)(F)F)c(OC)c2)cn1 [compound 105, 2,6-dimethoxy-4-[5-(2-methoxypyrimidin-5-yl)benzimidazol-1-yl]-N-(2,2,2-trifluoroethyl)benzamide] | < 6.30 | < 6.30 | 6.30 to 7.00 |
| COc1cc(-n2cnc3cc(-c4cn[nH]c4)ccc32)cc(OC)c1C(=O)NCC(F)(F)F [compound 47, 2,6-dimethoxy-4-[5-(1H-pyrazol-4-yl)benzimidazol-1-yl]-N-(2,2,2-trifluoroethyl)benzamide] | 7.00 to 8.00 | 7.00 to 8.00 | 8.00 to 11.00 |
| COc1cc(-n2cnc3cc(-c4cnn(C)c4)ccc32)cc(OC)c1C(=O)N1CC(N(C)C)C1 [compound 185, [2,6-dimethoxy-4-[5-(1-methylpyrazol-4-yl)benzimidazol-1-yl]phenyl]-[3-(dimethylamino)azetidin-1-yl]methanone] | 6.30 to 7.00 | 6.30 to 7.00 | < 6.30 |
| COc1cc(-n2cnc3cc(-c4cnn(C)c4)ccc32)cc(OC)c1C(=O)N1CCC1 [compound 162, azetidin-1-yl-[2,6-dimethoxy-4-[5-(1-methylpyrazol-4-yl)benzimidazol-1-yl]phenyl]methanone] | 6.30 to 7.00 | 6.30 to 7.00 | 7.00 to 8.00 |
| COc1cc(-n2cnc3cc(-c4cnn(C)c4)ccc32)cc(OC)c1C(=O)NC1CCC1 [compound 77, N-cyclobutyl-2,6-dimethoxy-4-[5-(1-methylpyrazol-4-yl)benzimidazol-1-yl]benzamide] | 7.00 to 8.00 | 7.00 to 8.00 | 7.00 to 8.00 |
| COc1cc(-n2cnc3cc(-c4cnn(C)c4)ccc32)cc(OC)c1C(=O)Nc1ccn(C)n1 [compound 81, 2,6-dimethoxy-N-(1-methylpyrazol-3-yl)-4-[5-(1-methylpyrazol-4-yl)benzimidazol-1-yl]benzamide] | 6.30 to 7.00 | 6.30 to 7.00 | 6.30 to 7.00 |
| COc1cc(-n2cnc3cc(-c4cnn(C)c4)ccc32)cc(OC)c1C(=O)Nc1cnc(C)cn1 [Cpd 70, 2,6-dimcthoxy-N-(5-methylpyrazin-2-yl)-4-[5-(1-methylpyrazol-4-yl)benzimidazol-1-yl]benzamide] | 6.30 to 7.00 | 7.00 to 8.00 | 6.30 to 7.00 |
| COc1cc(-n2cnc3cc(-c4cnn(C)c4)ccc32)cc(OC)c1C(=O)NCc1ccn(C)n1 [compound 61] | < 6.30 | 6.30 to 7.00 | < 6.30 |
| COc1cc(-n2cnc3cc(-c4cnnc(C)c4)ccc32)cc(OC)c1C(=O)NCC(F)(F)F [compound 121, 2,6-dimethoxy-4-[5-(6-methylpyridazin-4-yl)benzimidazol-1-yl]-N-(2,2,2-trifluoroethyl)benzamide] | < 6.30 | 6.30 to 7.00 | 7.00 to 8.00 |
| COc1cc(-n2cnc3cc(-c4cnn(C)c4)ccc32)cc(OC)c1C(=O)NC(C)C [compound 115, N-isopropyl-2,6-dimethoxy-4-[5-(1-methylpyrazol-4-yl)benzimidazol-1-yl]benzamide] | 7.00 to 8.00 | 7.00 to 8.00 | 7.00 to 8.00 |
| COc1cc(-n2cnc3cc(-c4cnn(C)c4)ccc32)cc(OC)c1C(=O)NCc1nccn1C [compound 71, 2,6-dimethoxy-N-[(1-methylimidazol-2-yl)methyl]-4-[5-(1-methylpyrazol-4-yl)benzimidazol-1-yl]benzamide] | 6.30 to 7.00 | 7.00 to 8.00 | 6.30 to 7.00 |
| COc1cc(-n2cnc3cc(-c4cnn(C)c4)ccc32)cc(OC)c1C(=O)N1CC2(COC2)C1 [compound 194] | 6.30 to 7.00 | 7.00 to 8.00 | 6.30 to 7.00 |
| COc1cc(-n2cnc3cc(-c4ccc(C#N)nc4)ccc32)cc(OC)c1C(=O)NCC(F)(F)F [compound 36, 4-[5-(6-cyano-3-pyridyl)benzimidazol-1-yl]-2,6-dimethoxy-N-(2,2,2-trifluoroethyl)benzamide] | 6.30 to 7.00 | 7.00 to 8.00 | 7.00 to 8.00 |
